ChEMBL document CHEMBL1139159, “Synthesis and anti-HIV-1 activities of novel podophyllotoxin derivatives” (Bioorg Med Chem Lett, 2007)

How the values were obtained:
[1] = Therapeutic index, IC50 for C8166 cells to EC50 for HIV1; assay type: cell-based; details: human, read-out: Ratio IC50/EC50
[2] = tested on: C8166; assay: Cytotoxicity against C8166 cells assessed as reduction in total cell number; assay type: cell-based; details: Homo sapiens
[3] = tested on: Human immunodeficiency virus 1; assay: Antiviral activity against HIV1 in C8166 cells assessed as inhibition of syncytia formation; assay type: functional, organism-based; details: Human immunodeficiency virus 1, C8166

Row | EC50 [3] | SMILES | selectivity ratio [1] | IC50 [2]
1 | 0.009 µM | Cc1cn([C@H]2C[C@H](N=[N+]=N)[C@@H](CO)O2)c(=O)[nH]c1=O | 55600 | 500 µM
2 | 0.17 µM | COc1cc([C@@H]2c3cc4c(cc3[C@@H](NC(=O)OC[C@@H]3C=C[C@H](n5cc(C)c(=O)[nH]c5=O)O3)[C@H]3COC(=O)[C@H]23)OCO4)cc(OC)c1O | 467 | 79.1 µM
3 | 0.29 µM | COc1cc([C@@H]2c3cc4c(cc3[C@H](NC(=O)OC[C@@H]3C=C[C@H](n5cc(C)c(=O)[nH]c5=O)O3)[C@H]3COC(=O)[C@H]23)OCO4)cc(OC)c1O | 355 | 104 µM
4 | 5.46 µM | COc1cc([C@@H]2c3cc4c(cc3[C@@H](NC(=O)OC[C@@H]3C=C[C@H](n5cc(C)c(=O)[nH]c5=O)O3)[C@H]3COC(=O)[C@H]23)OCO4)cc(OC)c1OC | 12.5 | 68.2 µM
5 | 46.9 µM | COc1cc2c(cc1OC)[C@@H](C(=O)O)[C@H]1COC(=O)[C@@H]1[C@@H]2c1cc(OC)c(OC)c(OC)c1 | > 9.31 | > 437 µM
6 | 4.39 µM | COc1cc2c(cc1OC)[C@@H](NC(=O)OC[C@@H]1C=C[C@H](n3cc(C)c(=O)[nH]c3=O)O1)[C@H]1COC(=O)[C@@H]1[C@@H]2c1cc(OC)c(OC)c(OC)c1 | > 67.1 | > 295 µM
7 | 0.24 µM | COc1cc([C@@H]2c3cc4c(cc3[C@H](NC(=O)OC[C@@H]3C=C[C@H](n5cc(C)c(=O)[nH]c5=O)O3)[C@H]3COC(=O)[C@H]23)OCO4)cc(OC)c1OC | 14.4 | 3.39 µM
8 | 1.05 µM | COc1cc2c(cc1OC)[C@@H](C#N)[C@H]1COC(=O)[C@@H]1[C@@H]2c1cc(OC)c(OC)c(OC)c1 | 131 | 138 µM

Row | SMILES | EC50 [3] | selectivity ratio [1] | IC50 [2]
9 | COc1cc([C@@H]2c3cc4c(cc3[C@H](O)[C@H]3COC(=O)[C@H]23)OCO4)cc(OC)c1OC [PODOFILOX] | 0.0029 µM | 53.3 | < 0.15 µM
